#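 These data come from cells grown in 96-well plates and exposed to compound for 48 hours at five concentrations. GI50 is the concentration that inhibits growth by half. TGI marks complete inhibition of growth.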
# Columns and labels:
# Experiment in all cases: NCI-60 cell line screen, 48 h
# HOP-92 NSCLC = tested on: HOP-92 NSCLC
# HT29 colon = tested on: HT29 colon
# M14 melanoma = tested on: M14 melanoma
# NCI-H226 lung = tested on: NCI-H226 lung
# OVCAR-3 ovarian = tested on: OVCAR-3 ovarian
# OVCAR-4 ovarian = tested on: OVCAR-4 ovarian
# OVCAR-8 ovarian = tested on: OVCAR-8 ovarian
# SNB-19 CNS = tested on: SNB-19 CNS
# TK-10 renal = tested on: TK-10 renal
# U251 CNS = tested on: U251 CNS
SMILES,TGI (HOP-92 NSCLC) [µM],TGI (HT29 colon) [µM],TGI (M14 melanoma) [µM],TGI (NCI-H226 lung) [µM],TGI (OVCAR-3 ovarian) [µM],TGI (OVCAR-4 ovarian) [µM],TGI (OVCAR-8 ovarian) [µM],TGI (SNB-19 CNS) [µM],TGI (TK-10 renal) [µM],TGI (U251 CNS) [µM],GI50 (HOP-92 NSCLC) [µM],GI50 (HT29 colon) [µM],GI50 (M14 melanoma) [µM],GI50 (NCI-H226 lung) [µM],GI50 (OVCAR-3 ovarian) [µM],GI50 (OVCAR-4 ovarian) [µM],GI50 (OVCAR-8 ovarian) [µM],GI50 (SNB-19 CNS) [µM],GI50 (U251 CNS) [µM],GI50 (TK-10 renal) [µM]
C=C(C)[C@@H]1CC[C@]2(C)CC[C@]3(C)[C@H](CC[C@@H]4[C@@]5(C)CC[C@H](O)C(C)(C)[C@@H]5CC[C@]43C)[C@@H]12,> 100,> 100,> 100,> 86.5,> 100,> 100,> 64.2,> 62.8,> 100,41,–,–,–,–,–,–,–,–,–,–
C=C1C(=O)O[C@H]2[C@H]1CC/C(CNC(=O)/C=C/c1cc(OC)c(OC)c(OC)c1)=C\CC[C@@]1(C)O[C@@H]21,5.44,8.31,2.87,28.7,1.44,10.5,16.1,32,–,16.4,0.257,1.59,1.21,7.72,0.333,1.51,4.09,11.9,4.23,–
O=c1[nH]nnc2c1ncn2C1OC(CO)C(O)C1O (configuration not stated),–,> 100,> 100,> 100,> 100,> 100,> 100,> 100,> 100,> 100,–,13,3.57,10.3,7.75,5.02,4.73,> 100,41.5,2.98
CCOC(=O)Nc1ccc2c(c1)/C(=N\NC(N)=S)c1ccccc1-2,62.5,13,23.1,17.6,27.8,39.1,13.8,> 100,> 68.5,40.9,8.49,3.23,4.69,4.43,4.38,4.39,3.77,9.92,4.54,15.2
COc1ccc2[nH]cc(-c3ccc(-c4c[nH]c5ccc(OC)cc45)s3)c2c1,19.5,4.51,18.4,> 42.9,27.5,23.7,> 49.9,34.6,21.3,12.6,4.64,2.06,6.36,8.95,10.7,6.82,5.86,10.1,3.68,6.29
C=C1C(=O)O[C@H]2[C@H]1CC/C(COC(=O)CSCSCC(=O)OC/C1=C/CC[C@@]3(C)O[C@H]3[C@H]3OC(=O)C(=C)[C@@H]3CC1)=C\CC[C@@]1(C)O[C@@H]21,2.85,2.82,3.22,13.9,2.54,8.74,4.96,5.99,3.67,3.85,1.39,1.37,1.55,3.51,1.2,2.68,1.93,2.44,1.7,1.92
CC[C@@H]1c2c(C#N)ncn2-c2cnc(Nc3ccc(C(=O)NC4CCN(C5CCN(CC6CC6)CC5)CC4)cc3OC)nc2N1C1CCCC1,1.83,0.135,1.35,2.64,1.63,1.7,–,2.05,2.23,1.48,0.0777,0.036,0.0316,1.31,0.0401,0.214,–,0.0668,0.042,1.03
CN1CCC2(CC1)ONC1=NCCN12,–,> 100,> 100,63.5,–,> 100,12.9,> 100,–,> 100,–,53.7,47.9,21.8,–,> 100,–,> 100,29.4,–
Cc1nnn[n-]1.N.N.N.N.N.[Cl-].[Co+3],> 100,> 100,> 100,> 100,> 100,–,> 100,> 100,> 100,> 100,> 100,> 100,> 100,> 100,> 100,–,> 100,> 100,> 100,> 100
CC(C)Cn1cnc2c(SCc3ccc(Cl)cc3Cl)nc(N)nc21,69.9,> 100,> 100,–,> 100,> 100,93.3,> 100,> 100,> 100,–,–,–,–,–,–,–,–,–,–
C[C@H](NC(=O)[C@@H](C)N)[C@H](Oc1ccc2c(cnn2-c2ccc(F)cc2)c1)c1ccc2c(c1)OCCO2,–,3.84,3.3,15.8,6.98,12.1,14,12.4,5.25,5.56,–,1.87,1.68,2.64,2.37,2.84,3.25,3.29,2.4,2.22
C=C1C(=O)O[C@@H]2C[C@@H](C)[C@@H]3C=CC(=O)[C@@]3(C)[C@@H](O)[C@H]12,–,3.88,5.63,4.9,3.72,10.5,5.71,7.02,11.8,2.99,–,–,–,–,–,–,–,–,–,–
O=C(O)C1=C(O)C(C(=O)O)C23CCCCCCCCCCC12C(C(=O)O)C(O)=C3C(=O)O (configuration not stated),> 100,> 100,> 100,> 100,> 100,–,> 100,> 100,> 100,> 100,–,–,–,–,–,–,–,–,–,–
Cc1c[n+](=O)c2ccccc2n1[O-],> 100,> 100,> 100,–,> 100,> 100,> 100,> 100,> 100,> 100,–,–,–,–,–,–,–,–,–,–
O/N=C1/C(=C/c2ccc3c(c2)OCO3)CCCC1C(NO)c1ccc2c(c1)OCO2 (configuration not stated),–,30.4,36.9,–,30.6,75.1,67.1,> 100,71.6,45.1,–,–,–,–,–,–,–,–,–,–

# Reference: PubChem BioAssay (NCI)
